ChEMBL document CHEMBL1201862, “PubChem BioAssay data set” (2004)
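Values below derive from 48-hour exposures of cells grown in 96-well plates, with endpoints linearly interpolated between the two concentrations bracketing the appropriate inhibition level. Here, GI50 denotes the concentration required for 50% inhibition of growth.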 Activity calls are given as the source filed them. No stated cut-off is given here; in the data, active = GI50 up to about 1.1 µM and inactive = higher.

Tests used:
Assay in all cases: NCI anticancer screen, dose series, 48 h
A498 = test system: A498
CAKI-1 = test system: CAKI-1
HCT-15 = test system: HCT-15
HOP-92 = test system: HOP-92
IGROV-1 = test system: IGROV-1
KM12 = test system: KM12
LOX IMVI = test system: LOX IMVI
M14 = test system: M14
MDA-MB-435 = test system: MDA-MB-435
MOLT-4 = test system: MOLT-4
NCI-H226 = test system: NCI-H226
NCI/ADR-RES = test system: NCI/ADR-RES
OVCAR-3 = test system: OVCAR-3
OVCAR-8 = test system: OVCAR-8
SK-OV-3 = test system: SK-OV-3
SNB-75 = test system: SNB-75
SW-620 = test system: SW-620
TK-10 = test system: TK-10
U-251 = test system: U-251
UACC-257 = test system: UACC-257

With COc1ccc(OC)c2c1C(=O)C(Cl)=C(Cl)C2=O the GI50 (A498) was 20.3 µM (inactive), the GI50 (CAKI-1) was 2.56 µM (inactive) and the GI50 (HCT-15) was 3.3 µM. For the same compound, the GI50 (HOP-92) was 2.51 µM (inactive), the GI50 (IGROV-1) was 15.5 µM (inactive) and the GI50 (KM12) was 17.3 µM (inactive). The GI50 (LOX IMVI) was 2.07 µM (inactive), the GI50 (M14) was 2.47 µM (inactive) and the GI50 (MDA-MB-435) was 2.31 µM (inactive). For the same compound, the GI50 (MOLT-4) was 2.51 µM (inactive), the GI50 (NCI-H226) was 18.7 µM (inactive) and the GI50 (NCI/ADR-RES) was 2.58 µM (inactive). For the same compound, the GI50 (OVCAR-3) was 2.39 µM (inactive), the GI50 (OVCAR-8) was 6.46 µM (inactive) and the GI50 (SK-OV-3) was 28.4 µM (inactive). For the same compound, the GI50 (SNB-75) was 14.2 µM (inactive), the GI50 (SW-620) was 1.81 µM (inactive) and the GI50 (TK-10) was 3.09 µM (inactive). The GI50 (U-251) was 18 µM (inactive) and the GI50 (UACC-257) was 2.19 µM (inactive).

CCO/C=N/C1=C(C#N)C(c2ccc(Cl)cc2)c2c(-c3ccccc3)nn(-c3ccccc3)c2O1 (stereo not given) was tested, and the GI50 (A498) was 13.4 µM (inactive), the GI50 (CAKI-1) was 15.7 µM (inactive) and the GI50 (HCT-15) was 5.43 µM. For the same compound, the GI50 (HOP-92) was 5.42 µM (inactive), the GI50 (IGROV-1) was 8.93 µM (inactive) and the GI50 (KM12) was 5.09 µM (inactive). For the same compound, the GI50 (LOX IMVI) was 9.62 µM (inactive), the GI50 (M14) was 4.58 µM (inactive) and the GI50 (MDA-MB-435) was 12.4 µM (inactive). The GI50 (MOLT-4) was 6.93 µM (inactive), the GI50 (NCI-H226) was 15.7 µM (inactive) and the GI50 (NCI/ADR-RES) was 9.86 µM (inactive). The GI50 (OVCAR-3) was 3.72 µM (inactive), the GI50 (OVCAR-8) was 14 µM (inactive) and the GI50 (SK-OV-3) was 14.3 µM (inactive). The GI50 (SNB-75) was 6.81 µM (inactive), the GI50 (SW-620) was 12.9 µM (inactive) and the GI50 (TK-10) was 7.19 µM (inactive). For the same compound, the GI50 (U-251) was 8.55 µM (inactive) and the GI50 (UACC-257) was 11.8 µM (inactive).

In the case of CC(C)(C)[C@H]1CCC2(OCCO2)[C@](O)(CCCO)C1, the GI50 (A498) is reported as > 100 µM (inactive), the GI50 (CAKI-1) is reported as > 100 µM (inactive) and the GI50 (HCT-15) is reported as over 100 µM. The GI50 (HOP-92) was > 100 µM (inactive), the GI50 (IGROV-1) was > 100 µM (inactive) and the GI50 (KM12) was > 100 µM (inactive). The GI50 (LOX IMVI) was > 100 µM (inactive), the GI50 (M14) was > 100 µM (inactive) and the GI50 (MDA-MB-435) was > 100 µM (inactive). For the same compound, the GI50 (MOLT-4) was > 100 µM (inactive), the GI50 (NCI-H226) was > 100 µM (inactive) and the GI50 (NCI/ADR-RES) was > 100 µM (inactive). The GI50 (OVCAR-3) was > 100 µM (inactive), the GI50 (OVCAR-8) was > 100 µM (inactive) and the GI50 (SK-OV-3) was > 100 µM (inactive). For the same compound, the GI50 (SNB-75) was > 100 µM (inactive), the GI50 (SW-620) was > 100 µM (inactive) and the GI50 (TK-10) was > 100 µM (inactive). For the same compound, the GI50 (U-251) was > 100 µM (inactive) and the GI50 (UACC-257) was > 100 µM (inactive).
